Assay results reported in ChEMBL document CHEMBL1201861, “Genomics of Drug Sensitity in Cancer screening data, Wellcome Trust Sanger Institute”.
pIC50: −log10 of the molar value.

Key:
Experiment in all cases: cells
ASPC1 = format: functional, cell-based, Homo sapiens; details: Homo sapiens, ASPC1;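 note: growth inhibition of AsPC-1 cells, read out with a cell viability assay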
Description: SANGER: Inhibition of human AsPC-1 cell growth in a cell viability assay.

HCC1419 = format: functional, cell-based, Homo sapiens; details: Homo sapiens, HCC1419;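 note: growth inhibition of human HCC1419 cells, read out as cell viability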
Description: SANGER: Inhibition of human HCC1419 cell growth in a cell viability assay.

KMOE-2 = format: functional, cell-based; details: Homo sapiens;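 note: growth inhibition of human KMOE-2 cells, read out with a cell viability assay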
Description: SANGER: Inhibition of human KMOE-2 cell growth in a cell viability assay.

KYSE-270 = format: functional, cell-based, Homo sapiens; details: Homo sapiens, KYSE-270;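 note: cell growth inhibition measured with a viability assay in the human KYSE-270 line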
Description: SANGER: Inhibition of human KYSE-270 cell growth in a cell viability assay.

ATN-1 = format: functional, cell-based; details: Homo sapiens;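 note: growth inhibition of human ATN-1 cells, read out with a cell viability assay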
Description: SANGER: Inhibition of human ATN-1 cell growth in a cell viability assay.

DB = format: functional, cell-based; details: Homo sapiens
Description: SANGER: Inhibition of human DB cell growth in a cell viability assay.

HT = format: functional, cell-based; details: Homo sapiens
Description: SANGER: Inhibition of human HT cell growth in a cell viability assay.

TE-12 = format: functional, cell-based; details: Homo sapiens;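 note: growth inhibition of TE-12 cells, read out by a cell viability assay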
Description: SANGER: Inhibition of human TE-12 cell growth in a cell viability assay.

IA-LM = format: functional, cell-based, Homo sapiens; details: Homo sapiens, IA-LM;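 note: cell viability assay measuring growth inhibition of human IA-LM cells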
Description: SANGER: Inhibition of human IA-LM cell growth in a cell viability assay.

HTC-C3 = format: functional, cell-based, Homo sapiens; details: Homo sapiens, HTC-C3;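 note: inhibition of cell growth, read out with a cell viability assay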
Description: SANGER: Inhibition of human HTC-C3 cell growth in a cell viability assay.

NCI-H2030 = format: functional, cell-based, Homo sapiens; details: Homo sapiens, NCI-H2030;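 note: growth inhibition of human NCI-H2030 cells, read out by a cell viability assay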
Description: SANGER: Inhibition of human NCI-H2030 cell growth in a cell viability assay.

TYK-nu = format: functional, cell-based, Homo sapiens; details: Homo sapiens, TYK-nu;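 note: growth inhibition of human TYK-nu cells, read out by a cell viability assay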
Description: SANGER: Inhibition of human TYK-nu cell growth in a cell viability assay.

DoTc2-4510 = format: functional, cell-based, Homo sapiens; details: Homo sapiens, DoTc2-4510
FTC-133 = format: functional, cell-based, Homo sapiens; details: Homo sapiens, FTC-133
LB2241-RCC = format: functional, cell-based, Homo sapiens; details: Homo sapiens, LB2241-RCC;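 note: cell viability assay measuring how strongly the cultured human renal carcinoma line is prevented from growing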
Description: SANGER: Inhibition of human LB2241-RCC cell growth in a cell viability assay.

Detroit 562 = format: functional, cell-based, Homo sapiens; details: Homo sapiens, Detroit 562;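 note: growth inhibition of human Detroit 562 cells, read out by a cell viability assay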
NCI-H526 = format: functional, cell-based; details: Homo sapiens;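 note: growth inhibition of the human NCI-H526 cell line, measured by a cell viability assay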
Description: SANGER: Inhibition of human NCI-H526 cell growth in a cell viability assay.

NCI-H747 = format: functional, cell-based; details: Homo sapiens;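 note: growth inhibition of human NCI-H747 cells, read out by a cell viability assay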
PANC-08-13 = format: functional, cell-based, Homo sapiens; details: Homo sapiens, PANC-08-13;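 note: cell growth inhibition, measured with a cell viability assay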
Description: SANGER: Inhibition of human PANC-08-13 cell growth in a cell viability assay.

MFE-280 = format: functional, cell-based, Homo sapiens; details: Homo sapiens, MFE-280;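 note: growth inhibition of MFE-280 cells, determined with a cell viability readout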
Description: SANGER: Inhibition of human MFE-280 cell growth in a cell viability assay.

TGBC1TKB = format: functional, cell-based, Homo sapiens; details: Homo sapiens, TGBC1TKB;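 note: growth inhibition of TGBC1TKB cells, read out by a cell viability assay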
Description: SANGER: Inhibition of human TGBC1TKB cell growth in a cell viability assay.

RT-112 = format: functional, cell-based, Homo sapiens; details: Homo sapiens, RT-112
CAL-12T = format: functional, cell-based, Homo sapiens; details: Homo sapiens, CAL-12T;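 note: growth inhibition of human CAL-12T cells, read out with a cell viability assay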
Description: SANGER: Inhibition of human CAL-12T cell growth in a cell viability assay.

A4-Fuk = format: functional, cell-based; details: Homo sapiens;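 note: growth inhibition of A4-Fuk cells, read out by a cell viability assay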
Description: SANGER: Inhibition of human A4-Fuk cell growth in a cell viability assay.

SNU-387 = format: functional, cell-based, Homo sapiens; details: Homo sapiens, SNU-387
Description: SANGER: Inhibition of human SNU-387 cell growth in a cell viability assay.

K5 = format: functional, cell-based, Homo sapiens; details: Homo sapiens, K5
Description: SANGER: Inhibition of human K5 cell growth in a cell viability assay.

KALS-1 = format: functional, cell-based, Homo sapiens; details: Homo sapiens, KALS-1;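 note: growth inhibition of KALS-1 cells, determined with a cell viability assay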
MKN-1 = format: functional, cell-based, Homo sapiens; details: Homo sapiens, MKN-1;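 note: growth inhibition of human MKN1 cells, read out by a cell viability measurement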
Description: SANGER: Inhibition of human MKN1 cell growth in a cell viability assay.

TGBC24TKB = format: functional, cell-based, Homo sapiens; details: Homo sapiens, TGBC24TKB;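 note: growth inhibition of human TGBC24TKB cells, read out with a cell viability assay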
Description: SANGER: Inhibition of human TGBC24TKB cell growth in a cell viability assay.

LU-139 = format: functional, cell-based; details: Homo sapiens
Description: SANGER: Inhibition of human LU-139 cell growth in a cell viability assay.

LNCaP-Clone-FGC = format: functional, cell-based, Homo sapiens; details: Homo sapiens, LNCaP-Clone-FGC
Description: SANGER: Inhibition of human LNCaP-Clone-FGC cell growth in a cell viability assay.

A204 = format: functional, cell-based, Homo sapiens; details: Homo sapiens, A204;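 note: growth inhibition of human A204 cells, read out with a cell viability assay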
Description: SANGER: Inhibition of human A204 cell growth in a cell viability assay.

SCC-25 = format: functional, cell-based, Homo sapiens; details: Homo sapiens, SCC-25;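 note: growth inhibition of SCC-25 cells, measured with a cell viability assay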
MHH-ES-1 = format: functional, cell-based, Homo sapiens; details: Homo sapiens, MHH-ES-1;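 note: cell growth inhibition measured by a cell viability assay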
Description: SANGER: Inhibition of human MHH-ES-1 cell growth in a cell viability assay.

M059J = format: functional, cell-based, Homo sapiens; details: Homo sapiens, M059J;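 note: growth inhibition of M059J cells, read out with a cell viability assay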
Description: SANGER: Inhibition of human M059J cell growth in a cell viability assay.

LXF-289 cell line = format: functional, cell-based, Homo sapiens; details: Homo sapiens, LXF-289
Description: SANGER: Inhibition of human LXF-289 cell growth in a cell viability assay.

ES4 = format: functional, cell-based, Homo sapiens; details: Homo sapiens, ES4;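 note: growth inhibition of human ES4 cells, read out by a cell viability assay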
Description: SANGER: Inhibition of human ES4 cell growth in a cell viability assay.

Lu-65 = format: functional, cell-based; details: Homo sapiens;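 note: growth inhibition of Lu-65 cancer cells, read out by a cell viability assay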
Description: SANGER: Inhibition of human LU-65 cell growth in a cell viability assay.

D-392MG = format: functional, cell-based, Homo sapiens; details: Homo sapiens, D-392MG
CAL-51 = format: functional, cell-based, Homo sapiens; details: Homo sapiens, CAL-51;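 note: human CAL-51 cell line, growth inhibition read out via a cell viability assay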
Description: SANGER: Inhibition of human CAL-51 cell growth in a cell viability assay.

Ca-Ski = format: functional, cell-based; details: Homo sapiens;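 note: cell viability assay measuring inhibition of Ca-Ski cell growth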
Description: SANGER: Inhibition of human Ca-Ski cell growth in a cell viability assay.

NCI-H1623 = format: functional, cell-based, Homo sapiens; details: Homo sapiens, NCI-H1623;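 note: cell viability assay used as the read-out for growth inhibition of NCI-H1623 cells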
Description: SANGER: Inhibition of human NCI-H1623 cell growth in a cell viability assay.

SCH = format: functional, cell-based, Homo sapiens; details: Homo sapiens, SCH;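 note: growth inhibition of human SCH cells, read out in a cell viability assay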
Description: SANGER: Inhibition of human SCH cell growth in a cell viability assay.

NCI-H2126 = format: functional, cell-based, Homo sapiens; details: Homo sapiens, NCI-H2126;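 note: growth inhibition of the cancer cell line, determined with a cell viability readout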
Description: SANGER: Inhibition of human NCI-H2126 cell growth in a cell viability assay.

SW982 = format: functional, cell-based; details: Homo sapiens;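 note: growth inhibition of SW982 cells, read out with a cell viability assay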
Description: SANGER: Inhibition of human SW982 cell growth in a cell viability assay.

HC-1 = format: functional, cell-based; details: Homo sapiens;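 note: growth inhibition of HC-1 cells measured by a cell viability assay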
Description: SANGER: Inhibition of human HC-1 cell growth in a cell viability assay.

GCT = format: functional, cell-based, Homo sapiens; details: Homo sapiens, GCT;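 note: GCT cell line proliferation inhibition, read out with a cell viability assay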
Description: SANGER: Inhibition of human GCT cell growth in a cell viability assay.

SW13 = format: functional, cell-based, Homo sapiens; details: Homo sapiens, SW13;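 note: IC50 is inhibition of SW13 cell growth, read out with a cell viability assay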
Description: SANGER: Inhibition of human SW13 cell growth in a cell viability assay.

SK-MEL-28 = format: functional, cell-based; details: Homo sapiens;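 note: growth inhibition of human SK-MEL-28 cells, read out with a cell viability assay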
Description: SANGER: Inhibition of human SK-MEL-28 cell growth in a cell viability assay.

KYSE-510 = format: functional, cell-based, Homo sapiens; details: Homo sapiens, KYSE-510;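 note: cell viability readout used to measure how strongly growth of the cell line is suppressed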
Description: SANGER: Inhibition of human KYSE-510 cell growth in a cell viability assay.

KYSE-450 = format: functional, cell-based; details: Homo sapiens;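 note: cell growth inhibition measured by a viability assay in human KYSE-450 cells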
Description: SANGER: Inhibition of human KYSE-450 cell growth in a cell viability assay.

PFSK-1 = format: functional, cell-based, Homo sapiens; details: Homo sapiens, PFSK-1;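 note: cell viability assay measuring how strongly compounds suppress growth of human PFSK-1 cells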
Description: SANGER: Inhibition of human PFSK-1 cell growth in a cell viability assay.

Work on C=CCc1cccc(/C=N/NC(=O)CN2CCN(Cc3ccccc3)CC2)c1O [PAC-1] yielded a pIC50 (ASPC1) of less than 5.59, a pIC50 (HCC1419) of less than 5.59 and a pIC50 (KMOE-2) of less than 5.59. The pIC50 (KYSE-270) was 5.61, the pIC50 (ATN-1) was less than 5.59 and the pIC50 (DB) was less than 5.59. The pIC50 (HT) was less than 5.59, the pIC50 (TE-12) was less than 5.59 and the pIC50 (IA-LM) was less than 5.59. It also gave a pIC50 (HTC-C3) of less than 5.59, a pIC50 (NCI-H2030) of less than 5.59 and a pIC50 (TYK-nu) of less than 5.59. For the same compound, the pIC50 (DoTc2-4510) was less than 5.59, the pIC50 (FTC-133) was less than 5.59 and the pIC50 (LB2241-RCC) was less than 5.59. The pIC50 (Detroit 562) was less than 5.59, the pIC50 (NCI-H526) was less than 5.59 and the pIC50 (NCI-H747) was less than 5.59. For the same compound, the pIC50 (PANC-08-13) was less than 5.59, the pIC50 (MFE-280) was less than 5.59 and the pIC50 (TGBC1TKB) was less than 5.59. It also gave a pIC50 (RT-112) of less than 5.59, a pIC50 (CAL-12T) of less than 5.59 and a pIC50 (A4-Fuk) of less than 5.59. The pIC50 (SNU-387) was less than 5.59, the pIC50 (K5) was less than 5.59 and the pIC50 (KALS-1) was less than 5.59. The pIC50 (MKN-1) was less than 5.59, the pIC50 (TGBC24TKB) was less than 5.59 and the pIC50 (LU-139) was less than 5.59. The pIC50 (LNCaP-Clone-FGC) was less than 5.59, the pIC50 (A204) was less than 5.59 and the pIC50 (SCC-25) was less than 5.59. The pIC50 (MHH-ES-1) was less than 5.59, the pIC50 (M059J) was less than 5.59 and the pIC50 (LXF-289 cell line) was less than 5.59. It also gave a pIC50 (ES4) of less than 5.59, a pIC50 (Lu-65) of less than 5.59 and a pIC50 (D-392MG) of less than 5.59. For the same compound, the pIC50 (CAL-51) was less than 5.59, the pIC50 (Ca-Ski) was less than 5.59 and the pIC50 (NCI-H1623) was less than 5.59. For the same compound, the pIC50 (SCH) was less than 5.59, the pIC50 (NCI-H2126) was less than 5.59 and the pIC50 (SW982) was less than 5.59. For the same compound, the pIC50 (HC-1) was 5.73, the pIC50 (GCT) was less than 5.59 and the pIC50 (SW13) was less than 5.59. It also gave a pIC50 (SK-MEL-28) of less than 5.59, a pIC50 (KYSE-510) of 5.74 and a pIC50 (KYSE-450) of less than 5.59. For the same compound, the pIC50 (PFSK-1) was less than 5.59.
Cc1ccc(Nc2nccc(N(C)c3ccc4c(C)n(C)nc4c3)n2)cc1S(N)(=O)=O [PAZOPANIB] showed a pIC50 (ASPC1) of less than 5.10, a pIC50 (HCC1419) of less than 5.10 and a pIC50 (KMOE-2) of less than 5.10. For the same compound, the pIC50 (KYSE-270) was less than 5.10, the pIC50 (ATN-1) was less than 5.10 and the pIC50 (DB) was less than 5.10. For the same compound, the pIC50 (HT) was less than 5.10, the pIC50 (TE-12) was less than 5.10 and the pIC50 (IA-LM) was 5.10. The pIC50 (HTC-C3) was less than 5.10, the pIC50 (NCI-H2030) was less than 5.10 and the pIC50 (TYK-nu) was less than 5.10. The pIC50 (DoTc2-4510) was less than 5.10, the pIC50 (FTC-133) was less than 5.10 and the pIC50 (LB2241-RCC) was less than 5.10. For the same compound, the pIC50 (Detroit 562) was less than 5.10, the pIC50 (NCI-H526) was less than 5.10 and the pIC50 (NCI-H747) was less than 5.10. The pIC50 (PANC-08-13) was less than 5.10, the pIC50 (MFE-280) was less than 5.10 and the pIC50 (TGBC1TKB) was less than 5.10. The pIC50 (RT-112) was 5.96, the pIC50 (CAL-12T) was less than 5.10 and the pIC50 (A4-Fuk) was less than 5.10. The pIC50 (SNU-387) was less than 5.10, the pIC50 (K5) was less than 5.10 and the pIC50 (KALS-1) was less than 5.10. It also gave a pIC50 (MKN-1) of less than 5.10, a pIC50 (TGBC24TKB) of less than 5.10 and a pIC50 (LU-139) of less than 5.10. It also gave a pIC50 (LNCaP-Clone-FGC) of less than 5.10, a pIC50 (A204) of 6.96 and a pIC50 (SCC-25) of less than 5.10. The pIC50 (MHH-ES-1) was less than 5.10, the pIC50 (M059J) was less than 5.10 and the pIC50 (LXF-289 cell line) was less than 5.10. The pIC50 (ES4) was less than 5.10, the pIC50 (Lu-65) was less than 5.10 and the pIC50 (D-392MG) was less than 5.10. For the same compound, the pIC50 (CAL-51) was less than 5.10, the pIC50 (Ca-Ski) was less than 5.10 and the pIC50 (NCI-H1623) was less than 5.10. The pIC50 (SCH) was less than 5.10, the pIC50 (NCI-H2126) was less than 5.10 and the pIC50 (SW982) was less than 5.10. For the same compound, the pIC50 (HC-1) was less than 5.10, the pIC50 (GCT) was less than 5.10 and the pIC50 (SW13) was less than 5.10. It also gave a pIC50 (SK-MEL-28) of less than 5.10, a pIC50 (KYSE-510) of less than 5.10 and a pIC50 (KYSE-450) of less than 5.10. For the same compound, the pIC50 (PFSK-1) was less than 5.10.
